# Data reported in patent US20140301961A1, “COMPOUNDS WITH ANTI-AGING ACTIVITIES” (priority 2011, published 2014).
# Legend:
# [1] = system: MMP-1, MMP-2, MMP-3, MMP-8, MMP-9; assay: UV-induced MMP production in human skin explants; assay type: cell-based; conditions: 1% in propylene glycol (FIG. 2)
# Method: MMP inhibition activity for compound of the invention was tested on human skin explants. Skin explants were sourced from 2 healthy caucasian female breast skin donor […]. A cream containing all-trans retinoic acid (tretinoin) (0.05%) was added topically using positive displacement pipette (5 ul/cm^2) to each explants. A similar cream base without tretinoin was used as placebo control. […] Solutions were kept under nitrogen and used immediately after preparation. Propylene glycol was used as vehicle control for the compounds of the invention in this study. Fluorokine MultiAnalyte Profiling (xMAP) using the BioPlex (ex. Biorad) dual laser flow-based sorting and detection analyzers manufactured by Luminex corporation (Luminex, Austin, Tex.) was employed to measure levels of MMP in conditioned media samples of stimulated dermal fibroblasts. The technology incorporated polystyrene microspheres dyed internally with differing ratios of two spectrally distinct fluorophores to create a family of different spectrally addressed bead sets. […] Samples were analyzed using the Bio-Plex suspension array system and Bio-Plex Manager software 4.0 (Bio-Rad Laboratories, Hercules, Calif.). Quantities were determined by comparison to standard curves obtained for the different MMP.
# [2] = system: Plasminogen activator (PLAT); assay: Plasminogen activator (PLAT) activation
# [3] = system: human reconstructed epidermis (SkinEthic model); assay: In vitro skin irritation, OECD guideline 439; assay type: cell-based; conditions: pure compound, cytotoxicity assay on reconstructed epidermis
# Method: The studies, aimed at evaluating the capability of the test compound to induce skin irritation effects by a cytotoxicity assay on in vitro human reconstructed epidermis (SkinEthic), were carried out according to the ECVAM protocol of Apr. 27, 2007, the B46 method of the official journal of the European union, dated Aug. 14, 2009 and the OECD guideline 439.
# [4] = system: connective tissue growth factor (CTGF); assay: Affymetrix gene array on skin explants, CTGF; assay type: cell-based, human; conditions: topical, 24 hours, cut-off |log 2−ratio|>1
# Description: Subcutaneous fat from full thickness skin, obtained from surgical waste material from breast reduction procedures, was removed with a scalpel. Three healthy Caucasian female donors were used for this study. The female donors differed from those of the skin-treatment study outlined previously 8 mm punch biopsies were taken from the skin (and these biopsies are now referred to as skin explants). Skin explants were put on Milipore cell culture inserts (12 mm diameter). Inserts containing skin explants were put in 6-well plates (one insert/well) and 1 mL of supplemented keratinocyte medium (ex Cascade Biologics) was added to each well. A tretinoin-containing cream (Aberela® ex. Janssen): 0.05% tretinoin in the cream, was applied topically to each explant (5 μL/cm^2) using a positive displacement pipette. A placebo cream without tretinoin was used as a control. The skin explants were incubated with tretinoin for 24 hours at 37° C. in 5% CO2-humidified air.
# RNA concentration was measured with ND-1000 spectrophotometer (ex. NanoDrop Technologies) and RNA quality was evaluated using the Agilent 2100 bioanalyzer system (ex. Agilent Technologies). 250 nanograms of total RNA from each skin or skin explant sample was used to prepare biotinylated fragmented cRNA according to the GeneChip® 3′IVT Express Kit Manual (PN702646 Rev 1, ex. Affymetrix Inc.). Affymetrix GeneChip® expression arrays (Human Genome U133 Plus 2.0) were hybridized for 16 hours in a 45° C. incubator, rotated at 60 rpm. According to the GeneChip Expression Wash, Stain and Scan Manual (PN 702731 Rev 2, ex. Affymetrix Inc.) the arrays were washed and stained using the Fluidics Station 450 and scanned using the GeneChip® Scanner 3000 7G.
# Analysis of the gene expression data was carried out in the statistical computing language R (http://www.r-project.org) using packages available from the Bioconductor project (www.bioconductor.org). The raw data was normalized using the robust multi-array average (RMA) method. In order to search for differentially expressed genes between the X samples and the Y samples group an empirical Bayes moderated t-test was then applied using the ‘limma’ package.
# Skin explants were obtained as detailed in Example 3.1. Compounds naringenin and N-acetyl aspartic acid were topically applied on skin explants for 24 hours and investigated with Affymetrix gene array.
# [5] = system: keratin 6; assay: Keratin-6 production in normal human keratinocytes; assay type: cell-based; conditions: normal human keratinocytes (FIG. 11)
SMILES,"inhibition of UV-induced MMP-1, MMP-2, MMP-3, MMP-8, MMP-9 production [1]",Plasminogen activator (PLAT) activation [2],skin irritation [3],CTGF gene expression [4] [log 2−ratio],keratin-6 production [5]
"C=C1C[C@]23C[C@@]1(O)CC[C@H]2[C@@]12C=C[C@H](O)[C@@](C)(C(=O)O1)[C@@H]2[C@@H]3C(=O)O [Gibberellic acid, (3S,3aS,4S,4aS,7S,9aR,9bR,12S)-7,12-dihydroxy-3-methyl-6-methylene-2-oxoperhydro-4a,7-methano-9b,3-propenoazuleno[1,2-b]furan-4-carboxylic acid]",inhibition,activated,–,–,–
"CC(=O)N[C@@H](CC(=O)O)C(=O)O [N-Acetyl aspartic acid, (2S)-2-Acetamidobutanedioic acid]",inhibition,activated,non-irritating to skin,1.03,–
"O=C1C[C@@H](c2ccc(O)cc2)Oc2cc(O)cc(O)c21 [Naringenin, (S)-2,3-Dihydro-5,7-dihydroxy-2-(4-hydroxyphenyl)-4H-1-benzopyran-4-one]",–,–,non-irritating to skin,1.05,stimulated keratin-6 production
